# Assay results reported in US11242361B2 (Proteostasis Therapeutics, Inc., priority 2013, dated 2022).
# Target: USP14 (Homo sapiens (Human), UniProt P54578)
# Experiment: USP14 Inhibition Assay
# Type: biochemical
# Details: average value from a minimum of two experimental determinations, read-out: IC50 Category
# Description: Example 17: USP14 Inhibition Assay
# “I” in the Table below designates an IC50 of >5 μM, “II” in the Table below designates and IC50 between 0.5 and 5 μM, and “III” designates an IC50<0.5 μM. The IC50 values in the Table below represent the average value from a minimum of two experimental determinations.
# Sequence of USP14 (P54578 whole entry, looked up): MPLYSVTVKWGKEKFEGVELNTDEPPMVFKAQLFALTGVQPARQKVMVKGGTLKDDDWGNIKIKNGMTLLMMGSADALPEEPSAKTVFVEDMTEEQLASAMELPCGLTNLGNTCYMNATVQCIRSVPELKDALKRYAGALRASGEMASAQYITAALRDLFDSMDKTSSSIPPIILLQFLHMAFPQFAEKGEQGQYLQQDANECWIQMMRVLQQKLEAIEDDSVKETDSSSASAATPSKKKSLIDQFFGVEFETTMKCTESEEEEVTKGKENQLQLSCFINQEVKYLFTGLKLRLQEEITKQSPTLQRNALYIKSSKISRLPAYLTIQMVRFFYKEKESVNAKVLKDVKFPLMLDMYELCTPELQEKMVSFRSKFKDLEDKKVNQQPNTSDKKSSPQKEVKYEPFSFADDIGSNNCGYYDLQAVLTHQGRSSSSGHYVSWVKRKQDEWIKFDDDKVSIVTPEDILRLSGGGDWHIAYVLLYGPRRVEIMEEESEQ
row,Structure (SMILES),IC50 [nM]
1,Cc1c(C(=O)CN2CCCCC2)c2ccccc2n1-c1ccc(C(N)=O)cc1 [Compound 108],> 5000
2,Cc1c(C(=O)CN2CCCCC2)c2ncccc2n1-c1ccc(Cl)cc1 [Compound 161],< 500
3,"Cc1c(C(=O)CN2CCCCC2)c2ccc(CO)cc2n1-c1ccc(Cl)cc1 [Compound 182, 1-(1-(4-Chlorophenyl)-6-(hydroxymethyl)-2-methyl-1H-indol-3-yl)-2-(piperidin-1-yl)ethan-1-one]",< 500
4,Cc1c(C(=O)CN2CCC(F)(F)C2)c2ncc(Br)cc2n1-c1ccc(C#N)cc1 [Compound 324],> 5000
5,Cc1c(C(=O)CN2CCCC2(C)C)c2ncc(Br)cc2n1-c1ccc(C#N)cc1 [Compound 310],< 500
6,"CCNC(=O)/C=C/c1cnc2c(C(=O)CN3CCCCC3)c(C)n(-c3ccc(C#N)cc3)c2c1 [Compound 305, (E)-3-(1-(4-Cyanophenyl)-2-methyl-3-(2-(piperidin-1-yl)acetyl)-1H-pyrrolo[3,2-b]pyridin-6-yl)-N-ethylacrylamide]",< 500
7,Cc1c(C(=O)CN2CCCCC2)c2ccccc2n1-c1ccc(Cl)cc1 [Compound 87],< 500
8,COC(CNC(=O)CCc1cnc2c(C(=O)CN3CCCCC3)c(C)n(-c3ccc(C#N)cc3)c2c1)OC [Compound 296],< 500
9,"COC(=O)c1ccc2c(C(O)CN3CCCCC3)c(C)n(-c3ccc(Cl)cc3)c2c1 (centres unmarked) [Compound 126, Methyl 1-(4-Chlorophenyl)-3-(1-hydroxy-2-(piperidin-1-yl)ethyl)-2-methyl-1H-indole-6-carboxylate]",> 5000
10,Cc1c(C(=O)CN2CCCCC2)c2ncc(C(F)(F)F)cc2n1-c1ccc(C#N)cc1 [Compound 300],< 500
11,"CC(=O)N(C)c1ccc2c(c1)c(C(=O)CN1CCCCC1)c(C)n2-c1ccc(C#N)cc1 [Compound 196, N-(1-(4-Cyanophenyl)-2-methyl-3-(2-(piperidin-1-yl)acetyl)-1H-indol-5-yl)-N-methylacetamide]",< 500
12,"Cc1c(C(=O)CN2CCCCC2)c2ccc(CN(C)C)cc2n1-c1ccc(Cl)cc1 [Compound 188, 1-(1-(4-chlorophenyl)-6-((Dimethylamino)methyl)-2-methyl-1H-indol-3-yl)-2-(piperidin-1-yl)ethan-1-one]",< 500
13,"Cc1c(C(O)CN2CCCCC2)c2ccc(CO)cc2n1-c1ccc(Cl)cc1 (centres unmarked) [Compound 130, 1-(1-(4-Chlorophenyl)-6-(hydroxymethyl)-2-methyl-1H-indol-3-yl)-2-(piperidin-1-yl)ethan-1-ol]",> 5000
14,O=C(CN1CCCCC1)c1cn(-c2ccc(Cl)cc2)c2ccccc12 [Compound 31],> 5000
15,Cc1c(C(=O)CN2CCC(O)CC2)c2ccccc2n1-c1ccc(C#N)cc1 [Compound 337],< 500
16,Cc1c(C(=O)CN2CCCCC2)c2cc(C#N)ccc2n1-c1ccc(C#N)cc1 [Compound 163],< 500
17,CCOc1cnc2c(C(=O)CN3CCC(O)CC3)c(C)n(-c3ccc(C#N)cc3)c2c1 [Compound 340],< 500

# More lines, now with the values ahead:
row,IC50 [nM],Structure (SMILES)
1,< 500,Cc1c(C(=O)CN2CC[C@@H](O)[C@@H](O)C2)c2ncc(Br)cc2n1-c1ccc(C#N)cc1 [Compound 355]
2,< 500,COc1cnc2c(C(=O)CN3CCC(CN(C)C)CC3)c(C)n(-c3ccc(C#N)cc3)c2c1 [Compound 370]
3,< 500,Cc1c(C(=O)CN2CCC(O)CC2)c2ncccc2n1-c1ccc(Cl)cc1 [Compound 388]
4,< 500,"Cc1c(C(=O)CN2CCCCC2)c2ncc(CCN3CCCC3)cc2n1-c1ccc(Cl)cc1 [Compound 346, 1-(1-(4-Chlorophenyl)-2-methyl-6-(2-(pyrrolidin-1-yl)ethyl)-1H-pyrrolo[3,2-b]pyridin-3-yl)-2-(piperidin-1-yl)ethan-1-one]"
5,< 500,COCCOc1cnc2c(C(=O)CN3CCC(O)CC3)c(C)n(-c3ccc(C#N)cc3)c2c1 [Compound 341]
6,< 500,C#CCCCNC(=O)CCc1cnc2c(C(=O)CN3CCC(O)CC3)c(C)n(-c3ccc(C#N)cc3)c2c1 [Compound 361]
7,< 500,"Cc1c(C(=O)CN2CCC(O)CC2)c2ncc(CCS(N)(=O)=O)cc2n1-c1ccc(Cl)cc1 [Compound 357, 2-(1-(4-Chlorophenyl)-3-(2-(4-hydroxypiperidin-1-yl)acetyl)-2-methyl-1H-pyrrolo[3,2-b]pyridin-6-yl)ethane-1-sulfonamide]"
8,> 5000,Cc1c(C(=O)CN2CCC(O)CC2)c2ccccc2n1-c1ccccn1 [Compound 397]
9,> 5000,Cc1c(C(=O)CN2CCC(O)CC2)c2ccccc2n1-c1cccnc1 [Compound 395]
